From patent EP4722207A1, “OXOISOINDOLINYL-SUBSTITUTED TETRAHYDROPYRIMIDINEDIONE DERIVATIVE AND USE THEREOF” (Gluetacs Therapeutics (Shanghai) Co., Ltd., priority 2023, dated 2024)

What was measured:
WEE1 = molecular target: T1, WEE1 (Homo sapiens, UniProt P30291+Q96SW2); assay: Western-blot assay, substrate protein degradation in hPBMCs: WEE1; format: cell-based; settings: compounds at 50 nM and 500 nM, 24 hours
T1 construct: effects of the compounds of the present disclosure on the expression of target proteins in cells; endogenous in cells; host or cells: human PBMCs (hPBMCs)

IKZF1 = molecular target: T2, IKZF1 (Homo sapiens, UniProt Q13422+Q96SW2); assay: Western-blot assay, substrate protein degradation in hPBMCs: IKZF1; format: cell-based; settings: compounds at 50 nM and 500 nM, 24 hours
T2 construct: effects of the compounds of the present disclosure on the expression of target proteins in cells; endogenous in cells; host or cells: human PBMCs (hPBMCs)

IKZF2 = molecular target: T3, IKZF2 (Homo sapiens, UniProt Q96SW2+Q9UKS7); assay: Western-blot assay, substrate protein degradation in hPBMCs: IKZF2; format: cell-based; settings: compounds at 50 nM and 500 nM, 24 hours
T3 construct: effects of the compounds of the present disclosure on the expression of target proteins in cells; endogenous in cells; host or cells: human PBMCs (hPBMCs)

IKZF3 = molecular target: T4, IKZF3 (Homo sapiens, UniProt Q96SW2+Q9UKT9); assay: Western-blot assay, substrate protein degradation in hPBMCs: IKZF3; format: cell-based; settings: compounds at 50 nM and 500 nM, 24 hours
T4 construct: effects of the compounds of the present disclosure on the expression of target proteins in cells; endogenous in cells; host or cells: human PBMCs (hPBMCs)

CK1α = molecular target: T5, CK1α (Homo sapiens, UniProt P48729+Q96SW2); assay: Western-blot assay, substrate protein degradation in hPBMCs: CK1α; format: cell-based; settings: compounds at 50 nM and 500 nM, 24 hours
T5 construct: effects of the compounds of the present disclosure on the expression of target proteins in cells; endogenous in cells; host or cells: human PBMCs (hPBMCs)

GSPT1 = molecular target: T6, GSPT1 (Homo sapiens, UniProt P15170+Q96SW2); assay: Western-blot assay, substrate protein degradation in hPBMCs: GSPT1; format: cell-based; settings: compounds at 50 nM and 500 nM, 24 hours
T6 construct: effects of the compounds of the present disclosure on the expression of target proteins in cells; endogenous in cells; host or cells: human PBMCs (hPBMCs)

MM.1S = assay: Cell viability assay (CellTiter-Meiluncell Luminescent), tumor cell proliferation, MM.1S; settings: Homo sapiens, MM1.S, 96 h, read-out: inhibitory activity (IC50, nM) against tumor cells proliferation, MM.1S
MGC803 = assay: Cell viability assay (CellTiter-Meiluncell Luminescent), tumor cell proliferation, MGC803; settings: Homo sapiens, MGC-803, 96 h, read-out: inhibitory activity (IC50, nM) against tumor cells proliferation, MGC803
Protocol: On the following day, the test compounds of the present disclosure were subjected to serial dilution. […] Subsequently, 0.5 µL of the test compound dilution was transferred into the 96-well plate containing the cells, with each well containing 100 µL of cell culture medium. […] Into the 96-well plate, the diluted test compounds and corresponding detection reagents were added, resulting in final test compound concentrations of 500 nM and 10 nM, respectively.
After the cells were treated with the compounds of the present disclosure for a specified period, the cell viability assay reagent was added to the culture medium according to the kit's instructions to determine cell viability. […] All controls were treated using the same procedure as the compounds of the present disclosure. The growth inhibition curves for the compounds of the present disclosure were plotted using Prism GraphPad software, and the IC50 values were calculated therefrom.

Jurkat = assay: Cell viability assay (CellTiter-Meiluncell Luminescent), tumor cell proliferation, Jurkat; settings: Homo sapiens, 96 h, read-out: inhibitory activity (IC50, nM) against tumor cells proliferation, Jurkat

T3 sequence (Q9UKS7 whole entry): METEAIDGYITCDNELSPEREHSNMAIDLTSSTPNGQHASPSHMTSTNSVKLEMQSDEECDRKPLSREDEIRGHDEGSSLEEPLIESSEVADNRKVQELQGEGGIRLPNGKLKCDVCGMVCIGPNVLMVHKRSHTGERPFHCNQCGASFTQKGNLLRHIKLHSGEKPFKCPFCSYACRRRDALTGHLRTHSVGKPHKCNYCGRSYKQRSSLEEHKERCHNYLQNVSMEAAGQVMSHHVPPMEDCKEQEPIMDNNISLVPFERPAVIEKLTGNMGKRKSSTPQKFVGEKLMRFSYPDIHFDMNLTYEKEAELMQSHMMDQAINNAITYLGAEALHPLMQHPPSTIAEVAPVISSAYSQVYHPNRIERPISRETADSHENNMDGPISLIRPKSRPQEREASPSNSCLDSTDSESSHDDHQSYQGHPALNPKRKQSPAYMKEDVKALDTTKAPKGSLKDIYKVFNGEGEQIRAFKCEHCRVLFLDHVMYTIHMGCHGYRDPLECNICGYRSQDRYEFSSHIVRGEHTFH
T3 sequence (Q96SW2 whole entry): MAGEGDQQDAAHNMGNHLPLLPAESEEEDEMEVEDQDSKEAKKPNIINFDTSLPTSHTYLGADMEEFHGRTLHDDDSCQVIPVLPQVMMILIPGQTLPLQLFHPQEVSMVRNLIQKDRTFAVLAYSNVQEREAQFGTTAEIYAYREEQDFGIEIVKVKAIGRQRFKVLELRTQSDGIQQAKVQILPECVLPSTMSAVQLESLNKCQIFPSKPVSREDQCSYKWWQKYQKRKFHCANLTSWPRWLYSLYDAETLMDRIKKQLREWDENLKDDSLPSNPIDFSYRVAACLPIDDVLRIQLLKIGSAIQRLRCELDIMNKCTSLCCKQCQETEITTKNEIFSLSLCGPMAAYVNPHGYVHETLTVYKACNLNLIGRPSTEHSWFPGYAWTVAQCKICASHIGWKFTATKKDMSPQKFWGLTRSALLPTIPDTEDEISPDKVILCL
T3 sequence (Q16531 whole entry partner): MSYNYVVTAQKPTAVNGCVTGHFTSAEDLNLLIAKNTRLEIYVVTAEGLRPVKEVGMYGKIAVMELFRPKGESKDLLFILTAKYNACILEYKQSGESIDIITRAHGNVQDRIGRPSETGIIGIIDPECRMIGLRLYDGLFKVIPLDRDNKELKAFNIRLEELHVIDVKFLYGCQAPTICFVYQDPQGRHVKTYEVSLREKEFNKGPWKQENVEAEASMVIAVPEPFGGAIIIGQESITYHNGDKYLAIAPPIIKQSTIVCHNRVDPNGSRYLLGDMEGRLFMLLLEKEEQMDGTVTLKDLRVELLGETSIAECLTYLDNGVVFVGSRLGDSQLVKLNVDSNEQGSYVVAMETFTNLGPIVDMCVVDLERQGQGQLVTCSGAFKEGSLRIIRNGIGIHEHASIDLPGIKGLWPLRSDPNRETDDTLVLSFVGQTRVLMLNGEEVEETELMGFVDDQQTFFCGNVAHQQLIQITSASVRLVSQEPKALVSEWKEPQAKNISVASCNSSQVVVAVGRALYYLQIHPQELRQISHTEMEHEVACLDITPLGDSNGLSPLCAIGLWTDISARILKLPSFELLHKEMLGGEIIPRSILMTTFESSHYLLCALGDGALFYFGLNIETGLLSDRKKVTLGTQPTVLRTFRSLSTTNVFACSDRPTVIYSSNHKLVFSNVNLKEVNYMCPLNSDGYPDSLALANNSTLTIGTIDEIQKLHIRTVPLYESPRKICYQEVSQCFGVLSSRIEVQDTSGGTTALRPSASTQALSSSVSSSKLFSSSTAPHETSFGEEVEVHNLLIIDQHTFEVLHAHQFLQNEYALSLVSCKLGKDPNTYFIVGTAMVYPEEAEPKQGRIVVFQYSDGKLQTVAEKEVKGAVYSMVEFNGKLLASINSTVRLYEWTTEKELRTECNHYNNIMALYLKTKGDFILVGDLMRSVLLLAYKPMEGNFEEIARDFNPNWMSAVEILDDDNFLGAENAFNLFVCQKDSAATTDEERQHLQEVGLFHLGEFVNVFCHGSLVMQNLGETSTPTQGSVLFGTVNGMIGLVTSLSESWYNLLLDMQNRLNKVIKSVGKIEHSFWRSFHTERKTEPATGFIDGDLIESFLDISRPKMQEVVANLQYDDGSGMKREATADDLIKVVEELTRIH
T1 sequence (P30291 whole entry): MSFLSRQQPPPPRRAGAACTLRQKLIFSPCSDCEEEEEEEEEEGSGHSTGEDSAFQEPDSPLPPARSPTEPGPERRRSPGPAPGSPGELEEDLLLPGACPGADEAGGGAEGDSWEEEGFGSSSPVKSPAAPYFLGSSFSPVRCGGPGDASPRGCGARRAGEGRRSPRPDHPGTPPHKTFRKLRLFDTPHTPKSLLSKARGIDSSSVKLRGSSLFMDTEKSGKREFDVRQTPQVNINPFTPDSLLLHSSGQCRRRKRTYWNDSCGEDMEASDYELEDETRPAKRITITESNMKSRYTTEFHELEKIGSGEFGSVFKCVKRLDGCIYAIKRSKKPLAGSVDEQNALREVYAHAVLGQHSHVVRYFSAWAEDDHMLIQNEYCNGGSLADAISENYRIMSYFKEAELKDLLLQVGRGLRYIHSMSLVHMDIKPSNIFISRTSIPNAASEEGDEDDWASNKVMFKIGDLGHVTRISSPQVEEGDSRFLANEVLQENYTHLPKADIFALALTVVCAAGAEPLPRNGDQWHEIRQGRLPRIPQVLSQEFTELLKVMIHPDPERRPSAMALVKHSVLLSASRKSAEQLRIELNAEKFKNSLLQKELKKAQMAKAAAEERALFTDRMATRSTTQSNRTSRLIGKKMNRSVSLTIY
T1 sequence (Q96SW2 whole entry): as the sequence (Q96SW2 whole entry) above
T1 sequence (Q16531 whole entry partner): as the sequence (Q16531 whole entry partner) above
T6 sequence (P15170 whole entry): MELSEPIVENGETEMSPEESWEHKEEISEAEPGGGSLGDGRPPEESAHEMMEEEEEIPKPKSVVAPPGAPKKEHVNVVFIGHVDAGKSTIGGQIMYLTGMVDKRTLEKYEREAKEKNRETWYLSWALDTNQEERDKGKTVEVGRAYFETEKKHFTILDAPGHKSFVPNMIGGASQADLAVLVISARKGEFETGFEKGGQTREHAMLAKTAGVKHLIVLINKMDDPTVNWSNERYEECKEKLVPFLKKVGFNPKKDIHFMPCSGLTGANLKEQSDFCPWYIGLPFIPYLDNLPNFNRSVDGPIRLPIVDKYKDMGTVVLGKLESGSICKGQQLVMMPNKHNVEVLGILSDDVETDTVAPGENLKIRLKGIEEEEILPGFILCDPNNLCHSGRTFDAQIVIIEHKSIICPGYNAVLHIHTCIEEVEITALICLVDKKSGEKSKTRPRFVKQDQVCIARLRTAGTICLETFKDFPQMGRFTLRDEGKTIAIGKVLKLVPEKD
T6 sequence (Q96SW2 whole entry): as the sequence (Q96SW2 whole entry) above
T6 sequence (Q16531 whole entry partner): as the sequence (Q16531 whole entry partner) above
T2 sequence (Q13422 whole entry): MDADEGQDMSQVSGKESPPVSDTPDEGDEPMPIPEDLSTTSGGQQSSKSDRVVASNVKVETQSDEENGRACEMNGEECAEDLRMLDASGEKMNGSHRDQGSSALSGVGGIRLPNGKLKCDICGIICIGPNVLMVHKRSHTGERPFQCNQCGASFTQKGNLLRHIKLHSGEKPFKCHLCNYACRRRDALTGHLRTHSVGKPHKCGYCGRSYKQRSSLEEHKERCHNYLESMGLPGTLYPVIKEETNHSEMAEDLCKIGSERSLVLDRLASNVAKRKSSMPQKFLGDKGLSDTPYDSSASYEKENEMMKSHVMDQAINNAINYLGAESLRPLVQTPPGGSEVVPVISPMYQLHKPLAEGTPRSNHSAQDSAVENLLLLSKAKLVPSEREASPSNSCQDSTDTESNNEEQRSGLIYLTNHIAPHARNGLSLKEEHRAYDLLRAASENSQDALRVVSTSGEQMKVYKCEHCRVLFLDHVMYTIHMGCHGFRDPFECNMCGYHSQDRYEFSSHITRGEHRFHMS
T2 sequence (Q96SW2 whole entry): as the sequence (Q96SW2 whole entry) above
T2 sequence (Q16531 whole entry partner): as the sequence (Q16531 whole entry partner) above
T5 sequence (P48729 whole entry): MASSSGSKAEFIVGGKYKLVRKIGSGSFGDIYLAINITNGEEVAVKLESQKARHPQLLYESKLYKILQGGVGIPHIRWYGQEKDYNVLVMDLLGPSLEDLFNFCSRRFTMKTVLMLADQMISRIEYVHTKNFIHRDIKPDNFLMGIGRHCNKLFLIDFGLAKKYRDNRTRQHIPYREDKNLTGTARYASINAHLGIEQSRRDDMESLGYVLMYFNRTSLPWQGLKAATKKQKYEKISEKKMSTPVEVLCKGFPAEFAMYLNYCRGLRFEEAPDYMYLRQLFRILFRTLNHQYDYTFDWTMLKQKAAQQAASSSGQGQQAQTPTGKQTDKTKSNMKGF
T5 sequence (Q96SW2 whole entry): as the sequence (Q96SW2 whole entry) above
T5 sequence (Q16531 whole entry partner): as the sequence (Q16531 whole entry partner) above

| Compound | WEE1 substrate protein remaining % (WEE1) | IKZF1 substrate protein remaining % (IKZF1) | IKZF2 substrate protein remaining % (IKZF2) | IKZF3 substrate protein remaining % (IKZF3) | CK1α substrate protein remaining % (CK1α) | GSPT1 substrate protein remaining % (GSPT1) | IC50 (MM.1S) [nM] | IC50 (MGC803) [nM] | IC50 (Jurkat) [nM] |
| --- | --- | --- | --- | --- | --- | --- | --- | --- | --- |
| O=C1CCN(N2Cc3cc(CN4CCN(c5cccc(Cl)c5Cl)CC4)ccc3C2=O)C(=O)N1 [GT-04853, 1-(5-((4-(2,3-dichlorophenyl)piperazin-1-yl)methyl)-1-oxoisoindolin-2-yl)dihydropyrimidine-2,4(1H,3H)-dione] | A ("A" is defined as 0% ≤ substrate protein remaining % ≤ 80%) | A ("A" is defined as 0% ≤ substrate protein remaining % ≤ 80%) | A ("A" is defined as 0% ≤ substrate protein remaining % ≤ 80%) | B ("B" is defined as 80%< substrate protein remaining %≤ 100%) | B ("B" is defined as 80%< substrate protein remaining %≤ 100%) | A ("A" is defined as 0% ≤ substrate protein remaining % ≤ 80%) | 100 to 300 | 500 to 1000 |  |
| O=C1CCN(N2Cc3cc(CN4CCN(c5cccc6sccc56)CC4)ccc3C2=O)C(=O)N1 [GT-04866, 1-(5-((4-(benzo[b]thiophen-4-yl)piperazin-1-yl)methyl)-1-oxoisoindolin-2-yl)dihydropyrimidine-2,4(1H,3H)-dione] | A ("A" is defined as 0% ≤ substrate protein remaining % ≤ 80%) | A ("A" is defined as 0% ≤ substrate protein remaining % ≤ 80%) | B ("B" is defined as 80%< substrate protein remaining %≤ 100%) | B ("B" is defined as 80%< substrate protein remaining %≤ 100%) | B ("B" is defined as 80%< substrate protein remaining %≤ 100%) | A ("A" is defined as 0% ≤ substrate protein remaining % ≤ 80%) | 100 to 300 | 300 to 500 | 300 to 500 |
| O=C1CCN(N2Cc3cc(CN4CC=C(c5cccs5)CC4)ccc3C2=O)C(=O)N1 [GT-04868, 1-(1-oxo-5-((4-(thiophen-2-yl)-3,6-dihydropyridin-1(2H)-yl)methyl)isoindolin-2-yl)dihydropyrimidine-2,4(1H,3H)-dione] | A ("A" is defined as 0% ≤ substrate protein remaining % ≤ 80%) | A ("A" is defined as 0% ≤ substrate protein remaining % ≤ 80%) | B ("B" is defined as 80%< substrate protein remaining %≤ 100%) | B ("B" is defined as 80%< substrate protein remaining %≤ 100%) | A ("A" is defined as 0% ≤ substrate protein remaining % ≤ 80%) | A ("A" is defined as 0% ≤ substrate protein remaining % ≤ 80%) | 100 to 300 | 300 to 500 | 300 to 500 |
| Cc1ccc(C2=CCN(Cc3ccc4c(c3)CN(N3CCC(=O)NC3=O)C4=O)CC2)s1 [GT-04869, 1-(5-((4-(5-methylthiophen-2-yl)-3,6-dihydropyridin-1(2H)-yl)methyl)-1-oxoisoindolin-2-yl)dihydropyrimidine-2,4(1H,3H)-dione] | A ("A" is defined as 0% ≤ substrate protein remaining % ≤ 80%) | A ("A" is defined as 0% ≤ substrate protein remaining % ≤ 80%) | A ("A" is defined as 0% ≤ substrate protein remaining % ≤ 80%) | A ("A" is defined as 0% ≤ substrate protein remaining % ≤ 80%) | B ("B" is defined as 80%< substrate protein remaining %≤ 100%) | A ("A" is defined as 0% ≤ substrate protein remaining % ≤ 80%) | 50 to 100 | 300 to 500 | 300 to 500 |
| Cc1ccsc1C1=CCN(Cc2ccc3c(c2)CN(N2CCC(=O)NC2=O)C3=O)CC1 [GT-04870, 1-(5-((4-(3-methylthiophen-2-yl)-3,6-dihydropyridin-1(2H)-yl)methyl)-1-oxoisoindolin-2-yl)dihydropyrimidine-2,4(1H,3H)-dione] | A ("A" is defined as 0% ≤ substrate protein remaining % ≤ 80%) | A ("A" is defined as 0% ≤ substrate protein remaining % ≤ 80%) | A ("A" is defined as 0% ≤ substrate protein remaining % ≤ 80%) | A ("A" is defined as 0% ≤ substrate protein remaining % ≤ 80%) | B ("B" is defined as 80%< substrate protein remaining %≤ 100%) | A ("A" is defined as 0% ≤ substrate protein remaining % ≤ 80%) | 50 to 100 | 100 to 300 | 100 to 300 |
| O=C1CCN(N2Cc3cc(CN4CC=C(c5ccsc5)CC4)ccc3C2=O)C(=O)N1 [GT-04871, 1-(1-oxo-5-((4-(thiophen-3-yl)-3,6-dihydropyridin-1(2H)-yl)methyl)isoindolin-2-yl)dihydropyrimidine-2,4(1H,3H)-dione] | A ("A" is defined as 0% ≤ substrate protein remaining % ≤ 80%) | A ("A" is defined as 0% ≤ substrate protein remaining % ≤ 80%) | B ("B" is defined as 80%< substrate protein remaining %≤ 100%) | B ("B" is defined as 80%< substrate protein remaining %≤ 100%) | B ("B" is defined as 80%< substrate protein remaining %≤ 100%) | A ("A" is defined as 0% ≤ substrate protein remaining % ≤ 80%) | 100 to 300 | 300 to 500 | 300 to 500 |
| Cc1cscc1C1=CCN(Cc2ccc3c(c2)CN(N2CCC(=O)NC2=O)C3=O)CC1 [GT-04872, 1-(5-((4-(4-methylthiophen-3-yl)-3,6-dihydropyridin-1(2H)-yl)methyl)-1-oxoisoindolin-2-yl)dihydropyrimidine-2,4(1H,3H)-dione] | A ("A" is defined as 0% ≤ substrate protein remaining % ≤ 80%) | A ("A" is defined as 0% ≤ substrate protein remaining % ≤ 80%) | B ("B" is defined as 80%< substrate protein remaining %≤ 100%) | B ("B" is defined as 80%< substrate protein remaining %≤ 100%) | B ("B" is defined as 80%< substrate protein remaining %≤ 100%) | A ("A" is defined as 0% ≤ substrate protein remaining % ≤ 80%) | 10 to 50 | 100 to 300 | 100 to 300 |
| Cc1cc(C2=CCN(Cc3ccc4c(c3)CN(N3CCC(=O)NC3=O)C4=O)CC2)cs1 [GT-04873, 1-(5-((4-(5-methylthiophen-3-yl)-3,6-dihydropyridin-1(2H)-yl)methyl)-1-oxoisoindolin-2-yl)dihydropyrimidine-2,4(1H,3H)-dione] | A ("A" is defined as 0% ≤ substrate protein remaining % ≤ 80%) | A ("A" is defined as 0% ≤ substrate protein remaining % ≤ 80%) | B ("B" is defined as 80%< substrate protein remaining %≤ 100%) | A ("A" is defined as 0% ≤ substrate protein remaining % ≤ 80%) | B ("B" is defined as 80%< substrate protein remaining %≤ 100%) | A ("A" is defined as 0% ≤ substrate protein remaining % ≤ 80%) | 50 to 100 | 100 to 300 | 100 to 300 |
| O=C1CCN(N2Cc3cc(CN4CCN(C(c5ccccc5)c5ccccc5)CC4)ccc3C2=O)C(=O)N1 [GT-04889, 1-(5-((4-benzhydrylpiperazin-1-yl)methyl)-1-oxoisoindolin-2-yl)dihydropyrimidine-2,4(1H,3H)-dione] | A ("A" is defined as 0% ≤ substrate protein remaining % ≤ 80%) | A ("A" is defined as 0% ≤ substrate protein remaining % ≤ 80%) | A ("A" is defined as 0% ≤ substrate protein remaining % ≤ 80%) | A ("A" is defined as 0% ≤ substrate protein remaining % ≤ 80%) | B ("B" is defined as 80%< substrate protein remaining %≤ 100%) | A ("A" is defined as 0% ≤ substrate protein remaining % ≤ 80%) | 100 to 300 | 300 to 500 | 300 to 500 |
| O=C1CCN(N2Cc3cc(CN4CCN(C(c5ccccc5)c5ccccn5)CC4)ccc3C2=O)C(=O)N1 (stereo not shown) [GT-04890, 1-(1-oxo-5-((4-(phenyl(pyridin-2-yl)methyl)piperazin-1-yl)methyl)isoindolin-2-yl)dihydropyrimidine-2,4(1H,3H)-dione] | B ("B" is defined as 80%< substrate protein remaining %≤ 100%) | A ("A" is defined as 0% ≤ substrate protein remaining % ≤ 80%) | A ("A" is defined as 0% ≤ substrate protein remaining % ≤ 80%) | B ("B" is defined as 80%< substrate protein remaining %≤ 100%) | B ("B" is defined as 80%< substrate protein remaining %≤ 100%) | A ("A" is defined as 0% ≤ substrate protein remaining % ≤ 80%) | 100 to 300 | 500 to 1000 |  |
